The values below come from ChEMBL document CHEMBL5614404, “Optimization of potent, broad-spectrum, and specific anti-influenza compounds targeting RNA polymerase PA-PB1 heterodimerization” (Eur J Med Chem, 2024).

Series [1] can be described thus: Selectivity index, ratio of CC50 for MDCK cells to EC50 for Influenza A virus PR/8/34 infected in MDCK cells. The class given is toxicity, cell-based. The conditions noted are these: dog, read-out: Ratio CC50/EC50.
The test system of the next series is Influenza A virus. The experiment in a line: Antiviral activity against Influenza A virus PR/8/34 infected in MDCK cells incubated for 48 hrs by plaque reduction assay. The class given is functional, organism-based. Conditions: Influenza A virus, PR/8/34, MDCK, 48 h. On the technique in general: In a plaque reduction assay, fewer plaques than in the control indicate reduced infectivity or spread.

A short description of series [2]: Inhibition of 6His-tagged Influenza virus PA (239 to 716 residues) extracted from Escherichia coli BL21(DE3)pLysS/GST-tagged Influenza virus PB1 (1 to 25 residues) by ELISA. Set-up: species or system unidentified influenza virus. On the technique in general: In an ELISA, binding on a coated surface is turned into a signal by an enzyme label.
Series [3] can be described thus: Cytotoxicity against MDCK cells incubated for 48 hrs by MTT assay. The class given is toxicity, cell-based, Canis lupus familiaris. Conditions: dog. On the technique in general: Tetrazolium assays rely on reduction of a dye to a coloured formazan, in cell work by metabolically active cells.

What is called EC50 is the concentration that produces a half-maximal response. Low values mean a more potent agent, high ones a less potent agent. By IC50 is commonly meant the concentration at which inhibition is half-maximal. As usually defined, the CC50 is the concentration that lowers cell viability or growth by half. High values mean lower toxicity to the cells, low ones greater toxicity to the cells. Turning to `O=C(Nc1sc2c(c1C(=O)Nc1ccccn1)CCCCC2)c1ccc([N+](=O)[O-])cc1O`, in series [1], the selectivity ratio came out at 144. The compound further had an EC50 in the series with Influenza A virus of 1300 nM. This compound also showed an IC50 in series [2] of 80 µM. This compound registered a CC50 at 48 h in series [3] of 188 µM.

For `O=C(Nc1sc2c(c1C(=O)Nc1ccc(F)cc1)CCCCC2)c1ccc([N+](=O)[O-])cc1`, the selectivity ratio in series [1] was > 3. In the series on Influenza A virus, this compound registered a 50% effective concentration (EC50) of 81000 nM. In addition, the IC50 in series [2] was > 200 µM. Also, the CC50 at 48 h in series [3] is > 250 µM.

Take `O=C(Nc1sc2c(c1C(=O)Nc1ccc(Cl)cc1)CCCCC2)c1ccc([N+](=O)[O-])cc1O`: in series [2], it took 17.3 µM to reach half-maximal inhibition (IC50). This compound also came in with a CC50 at 48 h in series [3] of 115 µM.

Compound `O=C(Nc1sc2c(c1C(=O)Nc1nccs1)CCCCC2)c1ccc([N+](=O)[O-])cc1O` had a 50% inhibitory concentration (IC50) in series [2] of 36 µM. Besides, in series [3], the CC50 at 48 h was 64.5 µM.

As for `O=C(Nc1sc2c(c1C(=O)Nc1ccccn1)CCCCC2)c1ccc2c(c1)OCCO2`, the EC50 with Influenza A virus was > 100000 nM. In addition, in series [2], the 50% inhibitory concentration (IC50) is > 200 µM. In series [3], the CC50 at 48 h is > 250 µM.

`O=C(Nc1sc2c(c1C(=O)Nc1ccc(C(F)(F)F)cc1)CCCCC2)c1ccccc1O`: the selectivity ratio in series [1] was > 455. In the series on Influenza A virus, the midpoint of the response, the EC50, lay at 440 nM. For the same compound, the IC50 in series [2] was > 200 µM. For the same compound, the CC50 at 48 h in series [3] is > 200 µM.

As for `O=C(Nc1sc2c(c1C(=O)Nc1ccc(Cl)cc1)CCCCC2)c1ccc([N+](=O)[O-])cc1`, the selectivity ratio in series [1] was > 192. The same compound showed an EC50 in the series with Influenza A virus of 1300 nM. In series [2], the IC50 is > 200 µM. Besides, the CC50 at 48 h in series [3] was > 250 µM.

In the case of `O=C(Nc1sc2c(c1C(=O)Nc1ccc(OC(F)(F)F)cc1)CCCCC2)c1ccc([N+](=O)[O-])cc1`, the selectivity ratio in series [1] was > 54. Further, the EC50 in the series with Influenza A virus was 4600 nM. Also, in series [2], the half-inhibitory concentration (IC50) was > 200 µM. Further, in series [3], the CC50 at 48 h is > 250 µM.

Consider `O=C(Nc1sc2c(c1C(=O)Nc1ccccn1)CCCCC2)c1ccc(Br)cn1`, for which, in the series on Influenza A virus, the EC50 was > 100000 nM. Half-maximal inhibition in series [2] (IC50) was put at 143 µM. Also, in series [3], the CC50 at 48 h is > 250 µM.

In the case of `CSCC[C@H](N)C(=O)N[C@@H](CC(=O)O)C(=O)N[C@H](C(=O)N[C@@H](CC(N)=O)C(=O)N1CCC[C@H]1C(=O)N[C@H](C(=O)N[C@@H](CC(C)C)C(=O)N[C@@H](CC(C)C)C(=O)N[C@@H](Cc1ccccc1)C(=O)N[C@@H](CC(C)C)C(=O)N[C@@H](CCCCN)C(=O)N[C@H](C(=O)N1CCC[C@H]1C(=O)N[C@@H](C)C(=O)N[C@@H](CCC(N)=O)C(=O)N[C@@H](Cc1ccc(O)cc1)C(=O)NCC(=O)N[C@@H](CCCNC(=N)N)C(=O)N[C@@H](CCCCN)C(=O)N[C@@H](CCCCN)C(=O)N[C@@H](CCCNC(=N)N)C(=O)N[C@@H](CCCNC(=N)N)C(=O)N[C@@H](CCC(N)=O)C(=O)N[C@@H](CCCNC(=N)N)C(=O)N[C@@H](CCCNC(=N)N)C(=O)N[C@@H](CCCNC(=N)N)C(=O)N1CCC[C@H]1C(=O)N1CCC[C@H]1C(=O)O)C(C)C)[C@@H](C)O)C(C)C`, in series [1], the selectivity ratio is > 2. Moreover, in the series on Influenza A virus, it took 41000 nM to reach a half-maximal effect (EC50). In series [2], this compound gave an IC50 of 35 µM. Moreover, the CC50 at 48 h in series [3] was > 100 µM.

`O=C(Nc1sc2c(c1C(=O)Nc1ccc(Br)cc1)CCCCC2)c1ccc([N+](=O)[O-])cc1`: the selectivity ratio in series [1] is > 78. For the same compound, the EC50 with Influenza A virus is 3200 nM. The IC50 in series [2] is > 200 µM. Further, the CC50 at 48 h in series [3] is > 250 µM.

For the compound `O=C(Nc1sc2c(c1C(=O)Nc1ccccn1)CCCCC2)c1ccc(Cl)s1`, in series [1], the selectivity ratio is > 250. The compound further returned an EC50 in the series with Influenza A virus of 1000 nM. Further, the IC50 in series [2] is > 200 µM. For the same compound, the CC50 at 48 h in series [3] was > 250 µM.

Compound `O=C(Nc1sc2c(c1C(=O)Nc1ccccn1)CCCCC2)c1cccs1` showed an EC50 with Influenza A virus of 22000 nM. The compound also showed an IC50 in series [2] of 93 µM. This compound came in with a CC50 at 48 h in series [3] of 28 µM.

For `O=C(Nc1sc2c(c1C(=O)Nc1ccccn1)CCCCC2)c1ccsc1`, the response with Influenza A virus was half-maximal at 97000 nM (EC50). Moreover, the IC50 in series [2] is > 200 µM. In addition, in series [3], the CC50 at 48 h is > 250 µM.

Turning to `O=C(Nc1sc2c(c1C(=O)Nc1ccc(C(F)(F)F)cc1)CCCCC2)c1ccc([N+](=O)[O-])cc1O`, the IC50 in series [2] is > 200 µM. The same compound returned a half-maximal cytotoxic concentration (CC50) at 48 h in series [3] of 10 µM.

Regarding `O=C(Nc1sc2c(c1C(=O)Nc1ccc(OC(F)F)cc1)CCCCC2)c1ccc([N+](=O)[O-])cc1`, the selectivity ratio in series [1] is > 93. Also, the EC50 in the series on Influenza A virus came to 2700 nM. Further, the IC50 in series [2] was > 200 µM. Further, the CC50 at 48 h in series [3] was > 250 µM.

Consider `O=C(Nc1sc2c(c1C(=O)Nc1ccccn1)CCCCC2)c1ccc2c(c1)COC2=O`, for which the selectivity ratio in series [1] is > 6. This compound came in with an EC50 in the series with Influenza A virus of 17800 nM. For the same compound, in series [2], the IC50 came out at 143 µM. In addition, the CC50 at 48 h in series [3] was > 100 µM.

With `O=C(Nc1sc2c(c1C(=O)Nc1nccs1)CCCCC2)c1ccc([N+](=O)[O-])cc1`, in series [1], the selectivity ratio is > 1320. In the series with Influenza A virus, the EC50 came out at 190 nM. The compound further had an IC50 in series [2] of 125 µM. Also, the CC50 at 48 h in series [3] is > 250 µM.

On to `O=C(Nc1sc2c(c1C(=O)Nc1ccc(C(F)(F)F)cc1)CCCCC2)c1ccc(Cl)s1`, for which the selectivity ratio in series [1] was > 74. The compound further displayed an EC50 in the series on Influenza A virus of 1300 nM. Moreover, the IC50 in series [2] was 112 µM. In series [3], the CC50 at 48 h is > 100 µM.

As to `O=C(Nc1sc2c(c1C(=O)Nc1nccs1)CCCCC2)c1ccc(Cl)s1`, the selectivity ratio in series [1] is > 2940. For the same compound, the EC50 with Influenza A virus turned out to be 85 nM. The IC50 in series [2] was > 200 µM. For the same compound, in series [3], the CC50 at 48 h is > 250 µM.

Regarding `N#Cc1ccc(C(=O)Nc2sc3c(c2C(=O)Nc2ccc(Cl)cc2)CCCCC3)cc1`, the selectivity ratio in series [1] was > 368. Further, the response in the series on Influenza A virus was half-maximal at 680 nM (EC50). The compound further yielded an IC50 in series [2] of 145 µM. For the same compound, in series [3], the CC50 at 48 h is > 250 µM.

On to `O=C(Nc1sc2c(c1C(=O)Nc1ccccc1O)CCCCC2)c1ccc(Cl)s1`, for which the selectivity ratio in series [1] is 79. Also, it took 730 nM to reach a half-maximal effect in the series on Influenza A virus (EC50). Besides, the IC50 in series [2] was > 200 µM. In series [3], this compound gave a CC50 at 48 h of 57.7 µM.

For the compound `O=C(Nc1sc2c(c1C(=O)Nc1ccc(C(F)(F)F)cc1)CCCCC2)c1ccc([N+](=O)[O-])cc1`, the selectivity ratio in series [1] is > 250. In the series with Influenza A virus, this compound showed an EC50 of 660 nM. The IC50 in series [2] was > 200 µM. Further, in series [3], the CC50 at 48 h is > 250 µM.

Consider `N#Cc1ccc(C(=O)Nc2sc3c(c2C(=O)Nc2nccs2)CCCCC3)cc1`, for which, in series [2], the half-inhibitory concentration (IC50) is 62.5 µM. For the same compound, in series [3], the CC50 at 48 h is > 250 µM.

In the case of `O=C(Nc1sc2c(c1C(=O)Nc1ccc(Cl)cc1)CCCCC2)c1ccc(Cl)s1`, in series [1], the selectivity ratio was > 4. The EC50 in the series on Influenza A virus stood at 62000 nM. Also, the IC50 in series [2] is > 200 µM. Besides, the CC50 at 48 h in series [3] was > 250 µM.

In the case of `O=C(Nc1sc2c(c1C(=O)Nc1ccccc1O)CCCCC2)c1ccc([N+](=O)[O-])cc1`, the selectivity ratio in series [1] turned out to be 192. Moreover, in the series with Influenza A virus, the EC50 was found to be 380 nM. Also, in series [2], the IC50 is > 200 µM. In series [3], this compound registered a CC50 at 48 h of 73 µM.

As for `COc1ccc(NC(=O)c2c(NC(=O)c3ccc([N+](=O)[O-])cc3)sc3c2CCCCC3)cc1`, the EC50 in the series with Influenza A virus is > 100000 nM. The IC50 in series [2] was > 200 µM. Besides, the CC50 at 48 h in series [3] is > 250 µM.

`O=C(Nc1sc2c(c1C(=O)Nc1ccccn1)CCCCC2)c1ccc(Br)cc1`: in the series with Influenza A virus, the EC50 is > 100000 nM. In addition, half-maximal inhibition in series [2] (IC50) required 78 µM. The half-maximal cytotoxic concentration (CC50) at 48 h in series [3] was > 250 µM.

As for `O=C(Nc1sc2c(c1C(=O)Nc1ccccn1)CCCCC2)c1ccc2nonc2c1`, the concentration for a half-maximal effect (EC50) with Influenza A virus was > 10500 nM. In series [2], this compound displayed an IC50 of 75 µM. Besides, the midpoint of cytotoxicity in series [3], the CC50 at 48 h, lay at 10.5 µM.
